Measurements as given in patent US20050209157A1, “Short bioactive peptides and methods for their use” (priority 2001, published 2005).
In brackets after ≈: the same amount, converted by molar mass. Read-outs that look alike come from different tables or passages of the source. No end group written: not given here.

Legend:
MCF7 = assay: Anti-cancer assay, MTT, LD50; format: cell-based; settings: MCF7 breast adenocarcinoma line, MTT, 24 hours with peptide
Text: (§1) Numbers are LD50 values (μg/mL).

in vitro [1] = settings: human, WI38 normal lung fibroblast cells
in vitro [2] = format: cell-based, human; settings: human, human red blood cells
Experimental: This hemolytic assay is based upon that presented in Journal of Peptide Research 53: 82-90 (1999). […] All procedures were performed according to safety protocols pertaining to the handling and disposal of human body fluids.
Red blood cells (RBCs) were washed three times with PBS (35 mM phosphate buffer 0.15 M NaCl, pH 7.0). RBCs suspended in PBS (0.4% (v/v); about 10 ml per 15 peptides) were prepared. Suspensions (100 μl) were aliquoted to each sample and control tube. Serially diluted peptide solutions (100 μl) were pipetted into the sample tubes. Negative control tubes contained 100 μl PBS; positive control tubes contained 100 μl 1% Triton-X100 detergent. All tubes were incubated for 1 hour at 37° C. The tubes were removed from the incubator and centrifuged at 1000 g for 5 minutes. Supernatant (100 μl) was pipetted to a 96-well polyvinyl chloride plate. The absorbance at 414 nm (A414) was measured, and used to calculate the percent hemolysis according to the following formula. [formula]

BMKC = assay: Anti-cancer assay, MTT, LD50; format: cell-based; settings: BMKC cloned melanoma line, 24 hours with peptide
Text: as §1

H1299 = assay: Anti-cancer assay, MTT, LD50; format: cell-based; settings: 24 hours with peptide, lung large cell carcinoma
Text: as §1

PC3 = assay: Anti-cancer assay, MTT, LD50; format: cell-based; settings: 24 hours with peptide, prostate adenocarcinoma
Text: as §1

SW480 = assay: Anti-cancer assay, MTT, LD50; format: cell-based; settings: SW480 colon adenocarcinoma line, 24 hours with peptide
Text: as §1

WI38 = settings: MTT, 24 hours with peptide; for WI38 LD50: normal fibroblast line
HeLaS3 = assay: Anti-cancer assay, MTT, LD50; format: cell-based; settings: 24 hours with peptide, cervical carcinoma
Text: as §1

[3] = LD50 WI38, WI38 normal lung fibroblast line, MTT, 24 hours with peptide
[4] = pH 7, hemolytic assay, concentration at 50% hemolysis, 1 hour at 37° C., read-out: LD50
[5] = pH 7, Table 26, valine substitution, read-out: Hemolysis RBC LD50
[6] = WI-38 LD50, Table 26, valine substitution

Compound	LD50 MCF7 (MCF7)	CC50 at 24 h (in vitro [1]; [3]) [µg/mL]	HC50 at 1 h (in vitro [2]; [4]) [µg/mL]	LD50 BMKC (BMKC)	H1299 LD50 (H1299)	PC3 LD50 (PC3)	LD50 SW480 (SW480)	WI38 LD50 (WI38)	HeLaS3 LD50 (HeLaS3)	CC50 at 24 h (in vitro [1]; WI38 LD50, MTT, 24 hours with peptide, normal fibroblast line) [µg/mL]	HC50 at 1 h (in vitro [2]; [5]) [µg/mL]	CC50 at 24 h (in vitro [1]; [6]) [µg/mL]	LD50 WI38 (WI38; WI38 normal lung fibroblast line)
VAKALKALLKALKAL-NH2 [FLAK 17 CV]	23 µg/mL	26											
VAKLLAKALKKLL-NH2 [P506]			120										
CC(C)C[C@H](NC(=O)[C@H](C)NC(=O)[C@H](CC(C)C)NC(=O)[C@H](C)NC(=O)[C@H](CC(C)C)NC(=O)[C@H](CCCCN)NC(=O)[C@H](C)NC(=O)[C@H](CC(C)C)NC(=O)[C@H](CCCCN)NC(=O)[C@H](CCCCN)NC(=O)[C@H](C)NC(=O)[C@H](CC(C)C)NC(=O)[C@H](CCCCN)NC(=O)[C@H](C)NC(=O)[C@H](CC(C)C)NC(=O)[C@H](CCCCN)NC(=O)[C@H](CCCCN)NC(=O)[C@H](C)NC(=O)[C@@H](N)Cc1ccccc1)C(N)=O [P36]	9 µg/mL	19 (≈ 9.32 µM)	85	56 µg/mL	57 µg/mL	19 µg/mL	30 µg/mL	19 µg/mL					
VAKKFAKKFKKFAKKFAKFAFAF-NH2 [P503]	210 µg/mL	150	20										
MPKWKVFKKIEKVGRNIRNGIVKAGPAIAVLGEAKALG-OH [SB37COOH]	175 µg/mL	130		120 µg/mL	220 µg/mL		82 µg/mL	130 µg/mL	150 µg/mL				
FAKKLAKKLKKLAKKLAK-NH2 [Shiva 10 (1-18) AM]			900		71 µg/mL	81 µg/mL			190 µg/mL	101			
CC[C@H](C)[C@H](NC(=O)CN)C(=O)NCC(=O)N[C@@H](C)C(=O)N[C@H](C(=O)N[C@@H](CC(C)C)C(=O)N[C@@H](CCCCN)C(=O)N[C@H](C(=O)N[C@@H](CC(C)C)C(=O)N[C@H](C(=O)N[C@H](C(=O)NCC(=O)N[C@@H](CC(C)C)C(=O)N1CCC[C@H]1C(=O)N[C@@H](C)C(=O)N[C@@H](CC(C)C)C(=O)N[C@H](C(=O)N[C@@H](CO)C(=O)N[C@@H](Cc1c[nH]c2ccccc12)C(=O)N[C@H](C(=O)N[C@@H](CCCCN)C(=O)N[C@@H](CCCNC(=N)N)C(=O)N[C@@H](CCCCN)C(=O)N[C@@H](CCCNC(=N)N)C(=O)N[C@@H](CCC(N)=O)C(=O)N[C@@H](CCC(N)=O)C(N)=O)[C@@H](C)CC)[C@@H](C)CC)[C@@H](C)O)[C@@H](C)O)C(C)C)C(C)C [MELITTIIN]	9 µg/mL	16 (≈ 5.62 µM)		18 µg/mL	25 µg/mL	13 µg/mL	23 µg/mL	16 µg/mL	35 µg/mL				
VALALKALKKALKKLKKALKKAL-NH2 [P30]								93 µg/mL					
FALALKALKKLKKALKKAL-OH [P28]	65 µg/mL	101	700	93 µg/mL	54 µg/mL	16 µg/mL	59 µg/mL	101 µg/mL	80 µg/mL				
VAKKLAKLAKKLLAL-NH2 [P505, VAKKLAKLAKKLLAL-NH2]			620										
CC(C)C[C@H](NC(=O)[C@H](C)NC(=O)[C@H](CC(C)C)NC(=O)[C@H](C)NC(=O)[C@H](CC(C)C)NC(=O)[C@H](CCCCN)NC(=O)[C@H](C)NC(=O)[C@H](CC(C)C)NC(=O)[C@H](CCCCN)NC(=O)[C@H](CCCCN)NC(=O)[C@H](C)NC(=O)[C@H](CC(C)C)NC(=O)[C@H](CCCCN)NC(=O)[C@H](C)NC(=O)[C@H](CC(C)C)NC(=O)[C@H](CCCCN)NC(=O)[C@H](CCCCN)NC(=O)[C@H](C)NC(=O)[C@@H](N)C(C)C)C(N)=O [FLAK 25 AM V]	130 µg/mL	110 (≈ 55.3 µM)											
KLAKKLAKLAKLAKAL-NH2 [P159, reference compound]	61 µg/mL	82		140 µg/mL	74 µg/mL	145 µg/mL	140 µg/mL	82 µg/mL	275 µg/mL				
VAKKFAKKFKKFAKKFAKFAFAF-NH2 [compound 503]											20	150	
FAKKLAKKLKKLAKKLAK-NH2 [Shiva 10(1-18)AM]	45 µg/mL	101		66 µg/mL			63 µg/mL						
FKVKFKVKVK-NH2 [P303, reference compound]	315 µg/mL	355	500	330 µg/mL	345 µg/mL	530 µg/mL	530 µg/mL	355 µg/mL	> (> indicates greater than 1000)				
VALALKALKKALKKLKKALKKAL-OH [compound 508]											70	190	
FALALKALKKA-NH2 [Flak 96H]	> (> indicates greater than 1000)			> (> indicates greater than 1000)	> (> indicates greater than 1000)	> (> indicates greater than 1000)	> (> indicates greater than 1000)	> (> indicates greater than 1000)	> (> indicates greater than 1000)				> (> indicates greater than 1000)
